Tests used:
H1PT1 prenyltransferase = target: T1, H1PT1 prenyltransferase (Humulus lupulus, UniProt A0A0B4ZTQ2); test: Prenyltransferase activity of recombinant H1PT1 (yeast microsome fraction), LC-MS analysis of products; format: biochemical; conditions: for activity of transferring a prenyl group to substrate (substrate specificity): geranyl diphosphate as prenyl group donor, LCMS-IT-TOF, FIGS. 6 and 7
T1 construct: made in house; host or cells: Saccharomyces cerevisiae W303-1A-Δcoq2 (microsome fraction)
T1 sequence (A0A0B4ZTQ2 47-408): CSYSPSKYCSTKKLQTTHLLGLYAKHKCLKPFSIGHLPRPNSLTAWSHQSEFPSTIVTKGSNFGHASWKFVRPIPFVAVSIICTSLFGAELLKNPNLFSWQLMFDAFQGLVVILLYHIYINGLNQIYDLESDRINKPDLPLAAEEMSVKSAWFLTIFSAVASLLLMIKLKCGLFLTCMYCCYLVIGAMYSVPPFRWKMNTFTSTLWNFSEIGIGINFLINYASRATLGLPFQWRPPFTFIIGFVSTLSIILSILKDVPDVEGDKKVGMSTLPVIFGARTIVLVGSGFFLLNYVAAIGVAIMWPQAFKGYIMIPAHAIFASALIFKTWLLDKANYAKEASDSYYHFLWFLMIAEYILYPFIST
Protocol: (§1) The enzyme of the present invention (340 μg to 730 μg), a substrate aromatic compound (1 mM) such as flavonoid, a prenyl group donor (1 mM), and MgCl2 (20 mM) are mixed in a 100 mM Tris-HCl buffer (pH 7.5) to bring the amount of the resultant to 200 μl, and the reaction is allowed to proceed at 30° C. overnight. After the completion of the reaction, the product is extracted with ethyl acetate, dried, and dissolved in MeOH. The resultant may be analyzed using a mass spectrometer or via chromatography.
Cloned plasmids (pDR196-H1PT1 and pDR196-H1PT2) comprising each full-length sequence of the two gene clusters (H1PT1 and H1PT2) were introduced into the yeast strain (W303-1A-Δcoq2) by the lithium acetate method. Culture was conducted in 180 ml of SD-Ura liquid medium up to the logarithmic growth phase to express recombinant proteins in yeast transformants, and microsome fractions were prepared therefrom using the method of Yazaki et al. (JBC, 2002, 277, 6240-6246). The total amount of the reaction solution was adjusted to 200 μl by mixing 340 μg to 730 μg of proteins from the microsome fractions, flavonoid (1 mM), a prenyl group donor (1 mM), 20 mM MgCl2, and 100 mM Tris-HCl buffer (pH 7.5), and the reaction was allowed to proceed at 30° C. overnight. After the completion of the reaction, the product was extracted with ethyl acetate, dried, and dissolved in methanol (MeOH). The resultant was analyzed using Shimadzu LCMS-2010A and LCMS-IT-TOF (Shimadzu Corporation), TSK-GEL ODS-80Ts 2.0 mm×25 cm (TOSOH), and a solvent system (0.3% formic acid:acetonitrile=3:7) at a flow rate of 0.2 ml/min−1. […] These compounds had not been prepared via the heterologous expression system with the use of a plant-derived gene in the past. 6-Geranylnaringenin (peak c in FIG. 4) was compared with a standard sample (provided by Associate professor Tomohisa Kuzuyama, the University of Tokyo), and the same retention time and identical fragments were observed (FIG. 5). Thus, novel prenyltransferase (i.e., H1PT1 full-length: 1,224 bp, ORF: […].; H1PT2 full-length: 1,233 bp, ORF: 411 a.a.) was obtained. The amino acid sequences of proteins encoded by H1PT1 and H1PT2 are shown in SEQ ID NOs: 1 and 2, respectively. The nucleotide sequences of H1PT1 and H1PT2 are shown in SEQ ID NOs: 3 and 4, respectively. […] Thus, H1PT1 was mainly subjected to analysis as described below; however, it was also possible to analyze H1PT2 in the same manner.
The Sophora flavescens gene (JP Patent Publication (Kokai) No. 2008-220304 A) and the soybean gene (Akashi et al., Plant Physiology 149: 683-693, 2009), which are already known, are known to encode enzymes that interact with limited substrates with very high specificity. The enzymatic properties of recombinant H1PT1 were analyzed using LCMS-IT-TOF. Geranyl diphosphate was used as a prenyl group donor for prenylation of various flavonoid-associated compounds (e.g., isoliquiritigenin, sakuranetin, taxifolin, or genistein).

H1PT2 prenyltransferase = target: T2, H1PT2 prenyltransferase (Humulus lupulus, UniProt E5RP65); test: Prenyltransferase activity of recombinant H1PT2 (yeast microsome fraction), LC-MS analysis of products; format: biochemical; conditions: flavonoid 1 mM, geranyl diphosphate 1 mM as prenyl group donor, 20 mM MgCl2, pH 7.5, 30° C. overnight; FIG. 4
T2 construct: made in house; host or cells: Saccharomyces cerevisiae W303-1A-Δcoq2 (microsome fraction)
T2 sequence (E5RP65 92-411): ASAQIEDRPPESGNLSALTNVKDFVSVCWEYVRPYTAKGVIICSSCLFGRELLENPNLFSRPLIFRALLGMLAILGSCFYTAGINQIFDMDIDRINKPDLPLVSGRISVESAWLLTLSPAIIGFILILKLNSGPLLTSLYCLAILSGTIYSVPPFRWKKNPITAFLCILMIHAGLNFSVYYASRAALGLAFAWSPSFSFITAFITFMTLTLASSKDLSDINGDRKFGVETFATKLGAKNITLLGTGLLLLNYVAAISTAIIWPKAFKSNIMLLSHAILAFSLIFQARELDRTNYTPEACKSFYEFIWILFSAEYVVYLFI
Protocol: as §1
Cloned plasmids (pDR196-H1PT1 and pDR196-H1PT2) comprising each full-length sequence of the two gene clusters (H1PT1 and H1PT2) were introduced into the yeast strain (W303-1A-Δcoq2) by the lithium acetate method. Culture was conducted in 180 ml of SD-Ura liquid medium up to the logarithmic growth phase to express recombinant proteins in yeast transformants, and microsome fractions were prepared therefrom using the method of Yazaki et al. (JBC, 2002, 277, 6240-6246). […] The resultant was analyzed using Shimadzu LCMS-2010A and LCMS-IT-TOF (Shimadzu Corporation), TSK-GEL ODS-80Ts 2.0 mm×25 cm (TOSOH), and a solvent system (0.3% formic acid:acetonitrile=3:7) at a flow rate of 0.2 ml/min−1. […]

Row | SMILES | activity of transferring a prenyl group to substrate (substrate specificity) (H1PT1 prenyltransferase) | prenylated products from substrate (H1PT2 prenyltransferase) | prenylated products from substrate (H1PT1 prenyltransferase; flavonoid 1 mM, geranyl diphosphate 1 mM as prenyl group donor, 20 mM MgCl2, pH 7.5, 30° C. overnight, FIG. 4)
1 | O=c1c(-c2ccc(O)cc2)coc2cc(O)cc(O)c12 [genistein] | activity of transferring a prenyl group to all substrates was observed | – | –
2 | O=C(/C=C/c1ccc(O)cc1)c1ccc(O)cc1O [isoliquiritigenin] | activity of transferring a prenyl group to all substrates was observed | – | –
3 | O=C1C[C@@H](c2ccc(O)cc2)Oc2cc(O)cc(O)c21 [naringenin] | – | a compound into which prenyl had been introduced at position 6 and a compound into which prenyl was deduced to have been introduced at position 8 or 3′ were detected | a compound into which prenyl had been introduced at position 6 and a compound into which prenyl was deduced to have been introduced at position 8 or 3′ were detected
4 | COc1cc(O)c2c(c1)O[C@H](c1ccc(O)cc1)CC2=O [sakuranetin] | activity of transferring a prenyl group to all substrates was observed | – | –
5 | O=C1c2c(O)cc(O)cc2O[C@H](c2ccc(O)c(O)c2)[C@H]1O [taxifolin] | activity of transferring a prenyl group to all substrates was observed | – | –

From patent publication US20120110703A1, “PROTEIN HAVING NOVEL PRENYLT[…] AND GENE ENCODING THE SAME” (KIRIN HOLDINGS KABUSHIKI KAISHA, priority 2009, published 2012)
